Assay results reported in patent US20070155783A1, “Substituted cyclohexyl and piperidinyl derivates as melanocortin-4 receptor modulators” (priority 2003, published 2007).

What was measured:
hMC4-R [1] = molecular target: T1, hMC4-R (Homo sapiens, UniProt P32245); experiment: Membrane binding assay, competition with fluorescence labeled NDP-alpha-MSH (fluorescence polarization); settings: HEK293 cell membrane preparations expressing human melanocortin receptor
T1 construct: expressed in transfected cells; host or cells: HEK293 cells
T1 sequence (P32245 whole entry): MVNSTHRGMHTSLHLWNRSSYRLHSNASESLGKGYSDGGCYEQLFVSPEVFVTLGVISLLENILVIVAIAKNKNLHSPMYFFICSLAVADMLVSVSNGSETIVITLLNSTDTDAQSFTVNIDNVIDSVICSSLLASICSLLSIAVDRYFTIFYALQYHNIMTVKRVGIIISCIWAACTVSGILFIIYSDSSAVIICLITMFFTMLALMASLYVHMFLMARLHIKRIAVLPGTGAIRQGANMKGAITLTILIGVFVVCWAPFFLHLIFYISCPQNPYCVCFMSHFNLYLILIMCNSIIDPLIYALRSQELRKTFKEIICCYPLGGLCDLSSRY
Method: A membrane binding assay is used to identify competitive inhibitors of fluorescence labeled NDP-alpha-MSH binding to HEK293 cell membrane preparations expressing human melanocortin receptors.
The test compound or unlabeled NDP-alpha-MSH is dispensed at varying concentrations to a 384 well microtiter plate. Fluorescence labeled NDP-alpha-MSH is dispensed at a single concentration, followed by addition of membrane preparations. The plate is incubated for 5 h at room temperature.
The degree of fluorescence polarization is determined with a fluorescence polarization microplate reader.

hMC4-R [2] = molecular target: T1, hMC4-R; experiment: Functional cellular cAMP assay in HEK293 cells (fluorescence polarization); format: cell-based; settings: for EC50: HEK293 cells expressing human melanocortin receptor, cAMP production; for % activation functional assay: cAMP produced compared to stimulation with NDP-alpha-MSH
Method: A functional cellular assay, based on competition between unlabeled cAMP and a fixed quantity of fluorescence labeled cAMP for a limited number of binding sites on a cAMP specific antibody, is used to discriminate melanocortin receptor agonists from antagonists by fluorescence polarization.
HEK293 cells expressing one of the human melanocortin receptors are transferred to 384 well microtiter plates, an appropriate amount of cAMP antibody is added, followed by the addition of different concentrations of the test compound to effect cAMP production. Cells are lysed and a fluorescence labeled cAMP conjugate is dispensed. The plate is read on a fluorescence polarization microplate reader and the amount of cAMP produced as a response to a test compound is compared to the production of cAMP resulting from stimulation with NDP-alpha-MSH.
To define antagonistic activity of a test compound, the compound is dispensed at different concentrations to cells stimulated by an appropriate amount of NDP-α-MSH. Inhibition of cAMP production is determined by comparing the inhibition of cAMP production of the test compound to the inhibition of cAMP production by a known inhibitor tested at the same concentrations.

male Wistar rats = experiment: Spontaneous feeding paradigm, food intake in rats; format: in vivo, rat; settings: 10 mg/kg
Method: Food intake in rats is measured after i.p. or p.o. administration of the test compound (see e.g. Chen, A. S. et al. Transgenic Res 2000 April; 9(2):145-54).
3-4 Hours following the onset of the light-phase, individually housed, male Wistar rats (200 -300 g) receive an ip injection or po application of test compound or vehicle in an administration volume of 2 ml/kg. Following the administration of substances (1-30 mg/kg), a pre-weighted amount of normal laboratory chow is placed into the food hopper. Food remaining is measured by hand at 1-2 hour intervals for up to 8 hours. Differences in food intake between test-compound and vehicle-treated rats are evaluated.
Selected Examples of the present invention were active in the rat model at 10 mg/kg after p.o. administration of the test compound using male Wistar rats (n=4-8).

IC50 (hMC4-R [1]) [nM]	EC50 (hMC4-R [2]) [nM]	% activation functional assay (hMC4-R [2])	Compound	increase in cumulative food intake compared to vehicle (male Wistar rats; 2 hours following administration, p=0.048, n=4) [%]	increase in cumulative food intake compared to vehicle (male Wistar rats; 4 hours following administration, p=0.092, n=4) [%]	increase in cumulative food intake compared to vehicle (male Wistar rats; 7 hours following administration, p=0.047, n=4) [%]
600	3300	100%	O=C(N[C@H](C=C1CCC(c2ccccc2CN2CCCC2=O)CC1)Cc1ccc(Cl)cc1)[C@H]1Cc2ccccc2CN1 (stereo partly shown) [Example 1]	–	–	–
300	300	97%	O=C(N[C@@H](C=C1CCC(c2ccccc2CN2CCCC2=O)CC1)Cc1ccc(Cl)cc1)[C@H]1Cc2ccccc2CN1 (stereo partly shown) [Example 2]	–	–	–
3100	–	no activation	O=C(N[C@H](C=C1CCN(c2ccccc2CN2CCCC2=O)CC1)Cc1ccc(Cl)cc1)c1cc(=O)c2ccccc2o1 [Example 17]	–	–	–
1000	–	no activation	O=C(N[C@@H](C=C1CCC(c2ccccc2CN2CCCC2=O)CC1)Cc1ccc(Cl)cc1)c1cc(=O)c2ccccc2o1 (stereo partly shown) [Example 18]	–	–	–
–	–	–	COc1ccc2oc(C(=O)N[C@@H](C=C3CCC(c4ccccc4CN4CCCC4=O)CC3)Cc3ccc(Cl)cc3)cc(=O)c2c1 (stereo partly shown) [Example 34]	3100	460	151
